Results: patent US10358663B2, “Method of production of 2,4-dihydroxybutyric acid” (ADISSEO FRANCE S.A.S., priority 2010, dated 2019)
Positions count from the first letter of the chain named.

Assays:
malic enzyme = biological target: T1, malic enzyme (Rattus norvegicus, UniProt P13697); conditions: cited from earlier work
T1 sequence (P13697 1-572): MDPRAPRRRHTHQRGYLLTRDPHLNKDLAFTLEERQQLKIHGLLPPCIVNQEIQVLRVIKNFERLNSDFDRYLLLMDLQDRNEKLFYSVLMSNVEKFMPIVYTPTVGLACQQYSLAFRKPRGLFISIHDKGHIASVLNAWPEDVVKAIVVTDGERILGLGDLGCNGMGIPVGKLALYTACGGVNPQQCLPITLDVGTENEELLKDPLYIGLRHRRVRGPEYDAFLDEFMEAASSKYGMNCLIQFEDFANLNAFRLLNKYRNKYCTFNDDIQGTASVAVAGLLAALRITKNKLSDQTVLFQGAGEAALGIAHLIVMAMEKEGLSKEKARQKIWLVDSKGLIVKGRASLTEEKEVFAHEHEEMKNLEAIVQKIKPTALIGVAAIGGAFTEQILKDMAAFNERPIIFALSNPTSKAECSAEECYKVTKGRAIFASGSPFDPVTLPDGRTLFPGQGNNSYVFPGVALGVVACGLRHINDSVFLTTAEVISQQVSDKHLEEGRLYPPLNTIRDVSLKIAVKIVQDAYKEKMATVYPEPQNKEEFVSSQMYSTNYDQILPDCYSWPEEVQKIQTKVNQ

[1] = biological target: E. coli aspartate kinase LysC variant E119G T344M, SEQ ID NO: 41 (Escherichia coli, UniProt P08660, E119G/T344M); test: Lysine inhibition of malate kinase activity, LysC E119G T344M; type: biochemical; conditions: elevated lysine concentrations
E. coli aspartate kinase LysC variant E119G T344M, SEQ ID NO: 41, sequence (P08660 whole entry E119G/T344M): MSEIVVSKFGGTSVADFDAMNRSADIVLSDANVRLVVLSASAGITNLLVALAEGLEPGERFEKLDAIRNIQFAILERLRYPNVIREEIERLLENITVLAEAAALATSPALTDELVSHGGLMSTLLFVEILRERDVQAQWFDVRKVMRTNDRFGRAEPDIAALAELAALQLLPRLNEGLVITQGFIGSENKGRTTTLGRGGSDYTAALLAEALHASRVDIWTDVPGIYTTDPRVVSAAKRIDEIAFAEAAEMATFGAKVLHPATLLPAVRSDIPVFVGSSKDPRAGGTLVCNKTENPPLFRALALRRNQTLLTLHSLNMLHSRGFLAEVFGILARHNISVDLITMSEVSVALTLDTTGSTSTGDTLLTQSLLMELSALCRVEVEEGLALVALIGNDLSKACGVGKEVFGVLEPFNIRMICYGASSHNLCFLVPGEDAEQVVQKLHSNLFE
Method: (§1) The assay mixture contained 50 mM Hepes (pH 7.5), 50 mM KCl, 5 mM MgCl2, 0.24 mM NADH, 0.96 mM ATP, 0.96 mM PEP, 9 μg/mL of lactate dehydrogenase (Sigma, L2500), 12.4 μg/mL pyruvate kinase (Sigma, P1506), and appropriate amounts of purified aspartate (malate) kinase. Reactions were started by adding 50 mM (L)-aspartate or (L)-malate. Enzymatic assays were carried out at 30° C. in 96-well flat bottomed microtiter plates in a final volume of 250 μL. The reactions were followed by the characteristic absorption of NADH at 340 nm in a microplate reader (BioRad 680XR).
(§2) Expression and purification of enzymes: Protein expression for the His-tagged enzymes LysC E119G, LysC E119G E250K, LysC E119G T344M, LysC E119G S345L, LysC E119G T352I was carried out as described in Example 1.
(§3) Enzymatic assay: Malate kinase activities were assayed as described in Example 1. Lysine concentration in the reaction buffer was varied.

[2] = biological target: E. coli aspartate kinase LysC variant E119G S345L, SEQ ID NO: 45 (Escherichia coli, UniProt P08660, E119G/S345L); test: Lysine inhibition of malate kinase activity, LysC E119G S345L; type: biochemical; conditions: elevated lysine concentrations
E. coli aspartate kinase LysC variant E119G S345L, SEQ ID NO: 45, sequence (P08660 whole entry E119G/S345L): as the sequence (P08660 whole entry E119G/T344M) above, with M344T, S345L counted along it
Method: as §1, §2, §3

[3] = biological target: E. coli aspartate kinase LysC variant E119G E250K, SEQ ID NO: 39 (Escherichia coli, UniProt P08660, E119G/E250K); test: Lysine inhibition of malate kinase activity, LysC E119G E250K; type: biochemical; conditions: elevated lysine concentrations
E. coli aspartate kinase LysC variant E119G E250K, SEQ ID NO: 39, sequence (P08660 whole entry E119G/E250K): as the sequence (P08660 whole entry E119G/T344M) above, with E250K, M344T counted along it
Method: as §1, §2, §3

[4] = biological target: T2, Metallosphaera sedula succinic semialdehyde reductase Ms-SSR, wild type, SEQ ID NO: 76 (Metallosphaera sedula, UniProt A4YGN0); test: Malate semialdehyde reductase assay, Ms-SSR wild type; type: biochemical; conditions: pH 7.5, 30° C.
T2 sequence (A4YGN0 1-360): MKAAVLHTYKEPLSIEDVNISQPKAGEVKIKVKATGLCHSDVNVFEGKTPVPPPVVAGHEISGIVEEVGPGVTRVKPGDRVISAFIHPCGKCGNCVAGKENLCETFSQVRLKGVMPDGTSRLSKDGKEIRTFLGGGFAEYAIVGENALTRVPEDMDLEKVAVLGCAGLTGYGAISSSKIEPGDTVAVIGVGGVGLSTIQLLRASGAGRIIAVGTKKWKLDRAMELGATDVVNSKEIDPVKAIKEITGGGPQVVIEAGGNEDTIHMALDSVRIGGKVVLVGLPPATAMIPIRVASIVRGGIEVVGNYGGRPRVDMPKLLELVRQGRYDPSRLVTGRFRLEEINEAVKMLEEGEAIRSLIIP
Method: (§4) Test for Malate Semialdehyde Reductase Activity: Reaction: (L)-Malate semialdehyde+NAD(P)H→(L)-2,4-dihydroxybutyric acid+NAD(P)
(§5) The assay mixture contained 200 mM Hepes (pH 7.5), 50 mM KCl, 5 mM MgCl2, 0.24 mM NADH or NADPH, and appropriate amounts of purified enzyme. Reactions were started by adding 10 mM (L)-malate semialdehyde (malate semialdehyde was prepared freshly for each test, see Example 4). Enzymatic assays were carried out at 30° C. in 96-well flat bottomed microtiter plates in a final volume of 250 μL. The reactions were followed by the characteristic absorption of NAD(P)H at 340 nm in a microplate reader (BioRad 680XR).

[5] = biological target: T3, Metallosphaera sedula succinic semialdehyde reductase Ms-SSR variant H39R, SEQ ID NO: 225 (Metallosphaera sedula, UniProt A4YGN0, H39R); test: Malate semialdehyde reductase assay, Ms-SSR H39R; type: biochemical; conditions: pH 7.5, 30° C.
T3 sequence (A4YGN0 1-360 H39R): T2 sequence (A4YGN0 1-360) with H39R
Method: as §4, §5
(§6) Site-directed mutagenesis was carried out using the oligonucleotide pairs listed in Table 8 and the pMs-SSR plasmid as the template. Point mutations to change the amino acid sequences were introduced by PCR (Phusion 1U, HF buffer 20% (v/v), dNTPs 2.5 mM, direct and reverse primers 1 μM each, template plasmid 200 ng, water). When possible, plasmids created by PCR contained new restriction sites (introduced using silent mutations) in addition to the functional mutation to facilitate identification of mutated clones. The PCR products were digested by DpnI at 37° C. for 1 h to remove template DNA, and transformed into NEB 5-alpha competent E. coli cells (NEB). […]

[6] = biological target: T4, Metallosphaera sedula succinic semialdehyde reductase Ms-SSR variant H39R N43H, SEQ ID NO: 81 (Metallosphaera sedula, UniProt A4YGN0, H39R/N43H); test: Malate semialdehyde reductase assay, Ms-SSR H39R N43H; type: biochemical; conditions: pH 7.5, 30° C.
T4 sequence (A4YGN0 1-360 H39R/N43H): T2 sequence (A4YGN0 1-360) with H39R, N43H
Method: as §4, §5, §6

[7] = biological target: T5, Metallosphaera sedula succinic semialdehyde reductase Ms-SSR variant N43H, SEQ ID NO: 227 (Metallosphaera sedula, UniProt A4YGN0, N43H); test: Malate semialdehyde reductase assay, Ms-SSR N43H; type: biochemical; conditions: pH 7.5, 30° C.
T5 sequence (A4YGN0 1-360 N43H): T2 sequence (A4YGN0 1-360) with N43H
Method: as §4, §5, §6

For `O=C(O)C(O)CCO` (centres unmarked) [DHB, 2,4-dihydroxybutyric acid], the “Mode of inhibition of malic enzyme” value (malic enzyme) is given as “competitive inhibitor”.
With `NCCCC[C@H](N)C(=O)O` [lysine] the “sensitivity of malate kinase activity to lysine” value (“sensitivity” for short) [1] was “largely insensitive”, the “sensitivity” value [2] was “largely insensitive” and the “sensitivity” value [3] was “largely insensitive”.
In the case of `O=CC[C@H](O)C(=O)O` [malate semialdehyde, (L)-malate semialdehyde], the Maximum activity [4] was 4.9 μmol/(min* mgprot), the Maximum activity [5] was 1.7 μmol/(min* mgprot) and the Maximum activity [6] was 4.7 μmol/(min* mgprot). For the same compound, the Maximum activity [7] was 4.3 μmol/(min* mgprot).
